These results are taken from patent US7728014B2, “Heteroaromatic compounds having sphingosine-1-phosphate (S1P) receptor agonist biological activity” (Allergan, Inc., priority 2006, dated 2010).

Molecules are shown by their SMILES.

The target in one test is T1, human S1P3 receptor (Homo sapiens, UniProt Q99500).
T1 construct: expressed in transfected cells
The test is described as follows: FLIPR Ca+2 response assay, activation of human S1P3 receptor in T24 cells. The format is cell-based. Particulars: for EC50: T24 cells stably expressing human S1P3, tested 0.61 nM to 10,000 nM; for Emax at 10 µM: T-24, receptor activity at highest dose (10 μM) relative to that induced by 5 nM sphingosine-1-phosphate, read-out: S1P3 (% efficacy). The procedure: Compounds were also assessed for their ability to activate or block activation of the human S1P3 receptor in T24 cells stably expressing the human S1P3 receptor. Ten thousand cells/well were plated into 384-well poly-D-lysine coated plates one day prior to use. The growth media for the S1P3 receptor expressing cell line was McCoy's 5A medium supplemented with 10% charcoal-treated fetal bovine serum (FBS), 1% antibiotic-antimycotic and 400 μg/ml geneticin. On the day of the experiment, the cells were washed twice with Hank's Balanced Salt Solution supplemented with 20 mM HEPES (HBSS/Hepes buffer). The cells were then dye loaded with 2 uM Fluo-4 diluted in the HBSS/Hepes buffer with 1.25 mM Probenecid and incubated at 37° C. for 40 minutes. Extracellular dye was removed by washing the cell plates four times prior to placing the plates in the FLIPR (Fluorometric Imaging Plate Reader, Molecular Devices). Ligands were diluted in HBSS/Hepes buffer and prepared in 384-well microplates. The positive control, Sphingosine-1-Phosphate (S1P), was diluted in HBSS/Hepes buffer with 4 mg/ml fatty acid free bovine serum albumin. The FLIPR transferred 12.5 μl from the ligand microplate to the cell plate and took fluorescent measurements for 75 seconds, taking readings every second, and then for 2.5 minutes, taking readings every 10 seconds. Drugs were tested over the concentration range of 0.61 nM to 10,000 nM. Data for Ca^+2 responses were obtained in arbitrary fluorescence units and not translated into Ca^+2 concentrations. IC50 values were determined through a […] regression analysis using the Levenburg Marquardt algorithm. In Table 1, NA is defined as “Not Active,” ND is defined as “Not Determined,” % efficacy is defined as “percent of receptor activity induced by a test compound at the highest dose test (10 μM) relative to the receptor activity induced by 5 nM sphingosine-1-phosphate,” and % inhibition is defined as “percent of receptor activity induced by 5 nM sphingosine-1-phosphate that is inhibited by a test compound at the highest dose tested (10 μM).”

The subject of another test is perfused porcine eyes. Particulars: IOVS 45, 2263, 2004; cited from earlier work.

T1 sequence (Q99500 whole entry): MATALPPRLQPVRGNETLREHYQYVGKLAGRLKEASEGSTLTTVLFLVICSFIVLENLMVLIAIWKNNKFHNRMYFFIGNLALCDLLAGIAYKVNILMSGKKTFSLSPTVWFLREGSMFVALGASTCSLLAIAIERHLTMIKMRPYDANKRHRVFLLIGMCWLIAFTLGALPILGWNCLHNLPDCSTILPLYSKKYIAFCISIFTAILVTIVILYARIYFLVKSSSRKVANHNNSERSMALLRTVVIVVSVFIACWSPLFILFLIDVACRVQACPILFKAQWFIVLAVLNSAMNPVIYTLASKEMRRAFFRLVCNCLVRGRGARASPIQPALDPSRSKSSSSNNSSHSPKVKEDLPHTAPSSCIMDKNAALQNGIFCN

Molecule `COC(=O)c1ccc(-c2ccccc2)c(-c2ccccc2)n1` [Example 30, Methyl 5,6-diphenylpyridine-2-carboxylate] showed an EC50 on human S1P3 receptor (NA = Not Active) of 700 nM. In addition, the Emax at 10 µM at human S1P3 receptor stood at 84%.
Regarding `CCc1ccc(-c2ccc(C(=O)OC)nc2-c2ccncc2)cc1` [Example 52, Methyl 5-(4-Ethylphenyl)-6-(pyridin-4-yl)pyridine-2-carboxylate], on human S1P3 receptor, a half-maximal effect (EC50) was put at 340 nM and the Emax at 10 µM amounted to 90%.
Take `CCC(=O)c1ccc(-c2ccccc2)c(-c2ccc(C(F)(F)F)cc2)n1` [Example 79, 1-[5-Phenyl-6-(4-trifluoromethyl-phenyl)-pyridin-2-yl]-propan-1-one]: the EC50 at human S1P3 receptor (NA = Not Active) was 2600 nM. Besides, the Emax at 10 µM at human S1P3 receptor worked out at 30%.
With `CC(=O)c1cnc(-c2ccccc2)c(-c2ccccc2)n1` [Example 94, 1-(5,6-Diphenyl-pyrazin-2-yl)-ethanone], the EC50 on human S1P3 receptor (NA = Not Active) amounted to 2300 nM. Besides, the Emax at 10 µM on human S1P3 receptor came to 61%.
On the same counts, the results for `CCCc1ccc(-c2ccc(C(=O)OCC)nc2-c2ccccc2)cc1` [Example 24, Ethyl 6-Phenyl-5-(4-propylphenyl)-pyridine-2-carboxylate] are 3100 nM and 50%.
`CCOC(=O)c1ccc(-c2ccccc2)c(-c2ccccc2)n1` [Example 21, Ethyl 5,6-diphenylpyridine-2-carboxylate] came in with an EC50 at human S1P3 receptor (NA = Not Active) of 1800 nM. In addition, the Emax at 10 µM on human S1P3 receptor stood at 80%.
`CCCc1ccc(-c2ccc(C(=O)OC)nc2-c2ccccc2)cc1` [Example 33, Methyl 6-Phenyl-5-(4-propylphenyl)-pyridine-2-carboxylate]: the EC50 on human S1P3 receptor (NA = Not Active) is 2900 nM. For the same molecule, the Emax at 10 µM on human S1P3 receptor stood at 81%.
For the molecule `CCOC(=O)c1ccc(-c2ccc(CC)cc2)c(-c2ccccc2)n1` [Example 23, Ethyl 5-(4-Ethyl-phenyl)-6-phenyl-pyridine-2-carboxylate], the EC50 at human S1P3 receptor (NA = Not Active) came to 1400 nM. In addition, the Emax at 10 µM on human S1P3 receptor turned out to be 82%.
As to `CCCCCCCCCCCCC/C=C/[C@@H](O)[C@@H](N)COP(=O)(O)O` [Example S1P, Sphingosine-1-Phosphate], in the test with perfused porcine eyes, the “decrease of outflow facility” value is recorded as greater than 30%.
`CCC(=O)c1ccc(-c2ccccc2)c(-c2ccccc2)n1` [Example 76, 1-(5,6-Diphenyl-pyridin-2-yl)-propan-1-one] came in with an EC50 on human S1P3 receptor (NA = Not Active) of 3400 nM. For the same molecule, the Emax at 10 µM on human S1P3 receptor came out at 41%.
On human S1P3 receptor (NA = Not Active), `COCc1ccc(-c2ccccc2)c(-c2ccccc2)n1` [Example 92, 6-Methoxymethyl-2,3-diphenyl-pyridine] came in with an EC50 of 2400 nM. Moreover, on human S1P3 receptor, the Emax at 10 µM stood at 59%.
In the case of `CCC(=O)c1cnc(-c2ccccc2)c(-c2ccccc2)n1` [Example 95, 1-(5,6-Diphenyl-pyrazin-2-yl)-propan-1-one], the midpoint of the response at human S1P3 receptor (NA = Not Active), the EC50, lay at 4400 nM. Besides, the Emax at 10 µM at human S1P3 receptor was determined as 95%.
Take `COC(=O)c1cnc(-c2ccccc2)c(-c2ccccc2)n1` [Example 93, Methyl 5,6-Diphenyl-pyrazine-2-carboxylate]: the response on human S1P3 receptor (NA = Not Active) was half-maximal at 4100 nM (EC50). In addition, the Emax at 10 µM on human S1P3 receptor was 62%.
In the case of `CCOC(=O)c1ccc(-c2ccccc2)c(-c2ccc(CC)cc2)n1` [Example 28, Ethyl 6-(4-Ethylphenyl)-5-phenyl-pyridine-2-carboxylate], on human S1P3 receptor (NA = Not Active), a half-maximal response (EC50) required 2900 nM. For the same molecule, on human S1P3 receptor, the Emax at 10 µM is 48%.
Regarding `CC(=O)c1ccc(-c2ccccc2)c(-c2ccccc2)n1` [Example 75, 1-(5,6-Diphenyl-pyridin-2-yl)-ethanone], the EC50 on human S1P3 receptor (NA = Not Active) was greater than 10000 nM. Also, the Emax at 10 µM on human S1P3 receptor worked out at 51%.
As to `CCOC(=O)c1nnc(-c2ccc(C)cc2)c(-c2ccccc2)n1` [Example 17, Ethyl 5-Phenyl-6-p-tolyl-1,2,4-triazine-3-carboxylate], the 50% effective concentration (EC50) on human S1P3 receptor (NA = Not Active) was 2900 nM.
In turn, `COC(=O)c1ccc(-c2ccccc2)c(-c2ccc(C(F)(F)F)cc2)n1` [Example 35, Methyl 5-Phenyl-6-(4-trifluoromethylphenyl)-pyridine-2-carboxylate] gave a half-maximal effective concentration (EC50) on human S1P3 receptor (NA = Not Active) of 2300 nM. The Emax at 10 µM on human S1P3 receptor was determined as 91%.
For `CCc1ccc(-c2nnc(C(=O)OC)nc2-c2ccccc2)cc1` [Example 89, Methyl 6-(4-Ethyl-phenyl)-5-phenyl-1,2,4-triazine-3-carboxylate], the response on human S1P3 receptor (NA = Not Active) was half-maximal at 2300 nM (EC50). Also, on human S1P3 receptor, the Emax at 10 µM was 64%.
At human S1P3 receptor (NA = Not Active), `CCOC(=O)c1nnc(-c2ccc(CC)cc2)c(-c2ccccc2)n1` [Example 13, Ethyl 6-(4-Ethylphenyl)-5-phenyl-1,2,4-triazine-3-carboxylate] came in with an EC50 of 1600 nM. Further, at human S1P3 receptor, the Emax at 10 µM turned out to be 57%.
On the same counts, the results for `CCOC(=O)c1ccc(-c2ccccc2)c(-c2ccc(C)cc2)n1` [Example 27, Ethyl 5-Phenyl-6-p-tolyl-pyridine-2-carboxylate] are 3700 nM and 46%.
Molecule `CCOC(=O)c1ccc(-c2ccc(C)cc2)c(-c2ccccc2)n1` [Example 22, Ethyl 6-Phenyl-5-p-tolyl-pyridine-2-carboxylate] showed a 50% effective concentration (EC50) on human S1P3 receptor (NA = Not Active) of 740 nM. For the same molecule, the Emax at 10 µM at human S1P3 receptor amounted to 32%.
At human S1P3 receptor (NA = Not Active), `CCc1ccc(-c2ccc(C(=O)OC)nc2-c2ccccc2)cc1` [Example 32, Methyl 5-(4-Ethylphenyl)-6-phenyl-pyridine-2-carboxylate] registered an EC50 of 570 nM. The Emax at 10 µM on human S1P3 receptor came to 88%.
Turning to `COC(=O)c1ccc(-c2ccc(C)cc2)c(-c2ccccc2)n1` [Example 31, Methyl 6-Phenyl-5-p-tolyl-pyridine-2-carboxylate], the EC50 on human S1P3 receptor (NA = Not Active) was found to be 580 nM. For the same molecule, the Emax at 10 µM at human S1P3 receptor came out at 73%.
For the molecule `CCOC(=O)c1nnc(-c2ccccc2)c(-c2ccc(C(F)(F)F)cc2)n1` [Example 19, Ethyl 5-(4-Trifluoromethylphenyl)-6-phenyl-1,2,4-triazine-3-carboxylatate], the Emax at 10 µM at human S1P3 receptor stood at 34%.
